{"source": "patent US11311598B2", "about": "“Peptides and analogs for use in the treatment of oral mucositis” (Soligenix, Inc., priority 2013, dated 2022)", "key": {"[1]": {"test_system": "mouse tongue epithelium", "test": "prevention of radiation-induced mucositis (25 Gy to the mouse snout)", "format": "in vivo", "details": "25 Gy to mouse snout Day 0; 5 doses of 25 mg/kg IV every second day", "description": "RIVPA (SEQ ID NO. 5) and other IDRs modulate the innate defense response to tissue injury, reducing the severity of damage caused by the inflammatory cascade and enhancing resolution of disease. As described above, IDRs can mitigate the response to radiation damage in an oral mucositis model (FIG. 1, FIG. 2). […] Progressive thinning of the mouse tongue was assessed on Days 0, 2, 4, 6, 8, and 10 by histopathological analysis of the number of basal and suprabasal apoptotic, mitotic and total epithelial cells per unit area and per unit length. It is noted that the dose of radiation used (25 Gy) was chosen such that progressive thinning of the tongue epithelium was observed but no overt mucositis occurred."}, "[2]": {"test_system": "healthy volunteers", "test": "Phase 1 study in healthy volunteers, safety (SAD and MAD)", "format": "in vivo, human", "description": "Clinical experience with RIVPA (SEQ ID NO. 5) was obtained in a Phase 1 Study. The primary objective of the study was to determine the maximum tolerated dose (MTD) of single and repeat ascending doses of RIVPA (SEQ ID NO. 5) injectable solution following IV administration in healthy volunteers. The secondary objectives of this study included the assessment of the dose limiting toxicity (DLT), safety, PK and pharmacodynamic (PD) profiles of RIVPA (SEQ ID NO. 5) after single and repeated ascending IV doses of RIVPA (SEQ ID NO. 5). The study was divided into 2 phases: a single-ascending dose (SAD) phase and a multiple-ascending dose (MAD) phase.\nSingle IV doses of RIVPA (SEQ ID NO. 5) were well tolerated up to the maximum tested (8 mg/kg) and daily IV doses were well tolerated up to the maximum tested (6.5 mg/kg for 7 days).\nThe most frequently reported TEAEs (observed in more than one subject who received RIVPA (SEQ ID NO. 5) and in a higher proportion (%) than placebo subjects) were study treatment procedure-related events (General Disorders and Administration Site Conditions) such as vessel puncture site haematoma, vessel puncture site reaction and vessel puncture site pain. All vessel puncture-related events were mild and determined to be unrelated to study treatment by the QI. The second most frequently reported TEAEs were Nervous System Disorders, specifically headache and dizziness; these events were only mild to moderate. All other TEAEs were reported by only 1 subject at any given dose level (maximum of 3 dose levels).\nThe incidence of “possibly-related” events was also higher in the 2 highest dose levels. However, due to the small sample sizes (4 subjects received active treatment in each cohort), it was not possible to conclude whether the results definitely represented a dose-response. The majority of the TEAEs were not related to study treatment and were mild in severity with only one event reported as moderate. The most frequently reported TEAEs for subjects who received RIVPA (SEQ ID NO. 5) were General Disorders and Administration Site Conditions (i.e., procedure-related events) such as vessel puncture site haematoma, vessel puncture site reaction, and vessel puncture site pain. All vessel puncture-related events were mild and judged to be unrelated to treatment. Increased alanine aminotransferase (ALT) and back pain were reported by 3 (15.0%) subjects who received RIVPA (SEQ ID NO. 5) and these events were observed by only one (10.0%) subject who received the placebo."}, "[3]": {"details": "multiple ascending dose phase, subjects who received RIVPA"}}, "note": "Where no end group is shown, it is not given here.", "data": [{"substance": "RIVPA-NH2 [RIVPA (SEQ ID NO. 5), RIVPA]", "values": [{"measurement": "disease progression (progressive thinning of the mouse tongue)", "setting": "[1]", "value": "did not have any significant impact"}, {"measurement": "vital sign measurements, clinical laboratory or ECG results versus placebo", "setting": "[2]; Phase 1", "value": "No safety concerns or significant differences"}, {"measurement": "deaths and serious Adverse Events", "setting": "[2]; Phase 1, SAD and MAD", "value": "no deaths and no clinically significant, severe, or serious Adverse Events"}, {"measurement": "dose limiting toxicities (DLTs)", "setting": "[2]; Phase 1, SAD and MAD", "value": "no dose limiting toxicities"}, {"measurement": "MTD", "setting": "[2]; either phase of the trial", "value": "not reached"}, {"measurement": "daily IV doses well tolerated up to the maximum tested", "setting": "[2]; healthy volunteers, daily for 7 days", "value": "≤ 6.5", "unit": "mg/kg"}, {"measurement": "single IV doses well tolerated up to the maximum tested", "setting": "[2]; healthy volunteers, single-ascending dose phase", "value": "≤ 8", "unit": "mg/kg"}, {"measurement": "incidence of TEAEs", "setting": "[2]; multiple ascending dose phase, 4.5 and 6.5 mg/kg/day", "value": "highest incidence"}, {"measurement": "Increased alanine aminotransferase (ALT)", "setting": "[2]; [3]", "value": "3 (15.0%) subjects"}, {"measurement": "back pain", "setting": "[2]; [3]", "value": "3 (15.0%) subjects"}, {"measurement": "incidence of TEAEs", "setting": "[2]; single ascending dose phase", "value": "not dose-related"}]}]}
